What was measured:
OCI-Ly1 wt cells = assay type: cell-based; conditions: human, 24 h
Procedure: (§1) The graph depicts a titration of ibrutinib to determine toxicity towards OCI-Ly1 cell models upon administration of serial dilutions of ibrutinib (11 steps, ranges 0.01 to 20 μM) to OCI-Ly1 wt or OCI-Ly1_R110 cells for 24 hours. Cell growth in percent was plotted as total numbers of ibrutinib-treated cells relative to the total number of untreated cells. […] This dose was thus chosen for further testing of CAR T efficacy.
(§2) Coadministration of BTK-inhibitors like ibrutinib-a BTK/ITK inhibitor known to restore T cell functionality—to CAR T cell can have additive anti-tumor effects. To test this in the R110 CAR T setting, ibrutinib toxicity for OCI-Ly1 target cells was assessed first. For this, 2×10^4 OCI-Ly1 wt and OCI-Ly1_R110 cells were seeded in 200 μl culture media supplemented with serial dilutions of ibrutinib (PCI-32765, Selleck Chemicals, Cat. S2680) ranging from 0.01 to 20 μM. Cells grown under the same conditions without ibrutinib served as control. After 24h incubation, viable (trypan blue exclusion) cells were counted using the Vi-CELL XR system (Beckman Coulter). Cell growth in percent was then plotted as total numbers of ibrutinib-treated cells relative to the total number of untreated cells (FIG. 10). […] This dose was thus chosen for further testing of CAR T efficacy.

OCI-Ly1_R110 cells = assay type: cell-based; conditions: human, 24 h
Procedure: as §1, §2

With C=CC(=O)N1CCC[C@@H](n2nc(-c3ccc(Oc4ccccc4)cc3)c3c(N)ncnc32)C1 [ibrutinib] the “highest dose that does not result in a viability drop of target cells” value (OCI-Ly1 wt cells) was 0.08 UM and the “highest dose that does not result in a viability drop of target cells” value (OCI-Ly1_R110 cells) was 0.08 UM.

— US20260035459A1, “HUMANIZED CHIMERIC ANTIGEN RECEPTORS TARGETING THE B-CELL RECEPTOR OF CHRONIC LYMPHOCYTIC LEUKEMIA AND USES THEREOF” (AVA LIFESCIENCE GMBH, priority 2022, published 2026)
